Assay results: patent US7846928B2, “Substituted pyrazolopyridines and salts thereof, pharmaceutical compositions comprising same, methods of preparing same and uses of same” (Bayer Schering Pharma AG, priority 2006, dated 2010)

How the values were obtained:
[1] = target: T1, human insuline receptor (Ins-R) kinase domain (Homo sapiens, UniProt P06213); test: InsR HTRF assay (assay 4); type: biochemical; details: IC50 assay 4/IC50 assay 2
T1 construct: GST-tagged recombinant kinase domain of the human insuline receptor; GST; purchased ProQinase, Freiburg, Germany; host or cells: SF-9 cells
Method: Inhibitory activity of compounds against the kinase activity of the insulin receptor was quantified employing the Ins-R HTRF assay as described in the following paragraphs.
GST-tagged recombinant kinase domain of the human insuline receptor (Ins-R, purchase from ProQinase, Freiburg, Germany) expressed in SF-9 cells was used as kinase. As substrate for the kinase reaction biotinylated poly-(Glu,Tyr) (Cis biointernational, France) was used.
Ins-R was incubated for 20 min at 22° C. in the presence of different concentrations of test compounds in 5 μl assay buffer [50 mM Hepes/NaOH pH 7, 15 mM MnCl2, 1 mM dithiothreitol, 0.1 μM sodium ortho-vanadate, 0.015% (v/v) PEG20000, 10 μM adenosine-tri-phosphate (ATP), 0.3 μg/ml substrate, 1% (v/v) dimethylsulfoxide]. The concentration of Ins-R was adjusted depending of the activity of the enzyme lot and was chosen appropriate to have the assay in the linear range, typical concentrations were in the range of 10 pg/μl. The reaction was stopped by the addition of 5 μl of a solution of HTRF detection reagents (0.1 μM streptavidine-XLent and 1 nM PT66-Eu-Chelate, an europium-chelate labelled anti-phosphotyrosine antibody from Perkin Elmer) in an aqueous EDTA-solution (80 mM EDTA, 0.2% (w/v) bovine serum albumin in 50 mM HEPES/NaOH pH 7.0).
(§1) The resulting mixture was incubated 1 h at 22° C. to allow the binding of the biotinylated phosphorylated peptide to the streptavidine-XLent and the PT66-Eu-Chelate. Subsequently the amount of phosphorylated substrate was evaluated by measurement of the resonance energy transfer from the PT66-Eu-Chelate to the streptavidine-XLent. Therefore, the fluorescence emissions at 620 nm and 665 nm after excitation at 350 nm was measured in a HTRF reader, e.g. a Rubystar (BMG Labtechnologies, Offenburg, Germany) or a Viewlux (Perkin-Elmer). The ratio of the emissions at 665 nm and at […] was taken as the measure for the amount of phosphorylated substrate. The data were normalised (enzyme reaction without inhibitor=0% inhibition, all other assay components but no enzyme=100% inhibition) and IC50 values were calculated by a 4 parameter fit using an inhouse software.

Tie2 = Tie2 (Homo sapiens, UniProt Q02763); test: Tie-2-Kinase HTRF-Assay without kinase preactivation (assay 2); type: biochemical; set-up: fusion protein of GST and the intracellular domains of Tie-2; GST; made in house; host or cells: insect cells (Hi-5); details: GST-Tie-2 without preactivation, 10 μM ATP; pIC50 = -log IC50 molar
From the text: Tie2-inhibitory activity of compounds of the present invention was quantified employing two Tie2 HTRF assay as described in the following paragraphs.
A recombinant fusion protein of GST and the intracellular domains of Tie-2, expressed in insect cells (Hi-5) and purified by Glutathion-Sepharose affinity chromatography was used as kinase. Alternatively, commercially available GST-Tie2-fusion protein (Upstate Biotechnology, Dundee, Scotland) can be used As substrate for the kinase reaction the biotinylated peptide biotin-Ahx-EPKDDAYPLYSDFG (C-terminus in amid form) was used which can be purchased e.g. from the company Biosynthan GmbH (Berlin-Buch, Germany). Detection of phosphorylated product is achieved specifically by a trimeric detection complex consisting of the phosphorylated substrate, streptavidin-XLent (SA-XLent) which binds to biotin, and Europium Cryptate-labeled anti-phosphotyrosine antibody PT66 which binds to phosphorylated tyrosine.
Tie-2 (3.5 ng/measurement point) was incubated for 60 min at 22° C. in the presence of 10 μM adenosine-tri-phosphate (ATP) and 1 μM substrate peptide (biotin-Ahx-EPKDDAYPLYSDFG-NH2) with different concentrations of test compounds (0 μM and concentrations in the range 0.001-20 μM) in 5 μl assay buffer [50 mM Hepes/NaOH pH 7, 10 mM MgCl2, 0.5 mM MnCl2, 1.0 mM dithiothreitol, 0.01% NP40, protease inhibitor mixture (“Complete w/o EDTA” from Roche, 1 tablet per 2.5 ml), 1% (v/v) dimethylsulfoxide]. The reaction was stopped by the addition of 5 μl of an aqueous buffer (25 mM Hepes/NaOH pH 7.5, 0.28% (w/v) bovine serum albumin) containing EDTA (90 mM) and the HTRF (Homogeneous Time Resolved Fluorescence) detection reagents streptavidine-XLent (0.2 μM, from Cis Biointernational, Marcoule, France) and PT66-Eu-Chelate (0.3 ng/μl; a europium-chelate labelled anti-phospho-tyrosine antibody from Perkin Elmer).
as §1, with “substrate peptide” for “substrate”, “substrate peptide.” for “substrate.”

Chain of Tie2 (Q02763 770-1124 limits assumed): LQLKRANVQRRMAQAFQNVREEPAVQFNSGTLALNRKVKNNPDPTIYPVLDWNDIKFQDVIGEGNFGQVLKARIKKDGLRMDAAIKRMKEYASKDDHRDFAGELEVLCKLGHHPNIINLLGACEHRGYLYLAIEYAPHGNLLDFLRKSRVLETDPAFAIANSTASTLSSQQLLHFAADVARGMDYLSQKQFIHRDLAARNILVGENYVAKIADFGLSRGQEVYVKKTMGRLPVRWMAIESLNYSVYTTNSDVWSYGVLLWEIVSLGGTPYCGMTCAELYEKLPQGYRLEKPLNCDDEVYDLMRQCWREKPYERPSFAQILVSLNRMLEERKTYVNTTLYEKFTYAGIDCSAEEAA
T1 sequence (P06213 1023-1298 limits assumed): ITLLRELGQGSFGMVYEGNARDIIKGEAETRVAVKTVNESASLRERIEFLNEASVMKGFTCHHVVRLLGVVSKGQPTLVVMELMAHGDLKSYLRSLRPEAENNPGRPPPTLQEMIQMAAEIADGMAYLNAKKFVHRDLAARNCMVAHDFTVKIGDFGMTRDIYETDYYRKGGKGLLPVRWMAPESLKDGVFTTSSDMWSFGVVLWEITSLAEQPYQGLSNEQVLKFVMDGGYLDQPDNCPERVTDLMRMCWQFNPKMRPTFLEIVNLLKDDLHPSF

Selectivity vs. InsR [1] | IC50 (Tie2) | SMILES
>20 fold | < 501 nM | Cn1ncc2c(-c3ccc(NC(=O)Nc4cccc(C(F)(F)F)c4)cc3)cc(C3CCCCC3)nc21 [1.38, 1-[4-(6-Cyclohexyl-1-methyl-1H-pyrazolo[3,4-b]pyridin-4-yl)-phenyl]-3-(3-trifluoromethyl-phenyl)-urea]
>20 fold | < 501 nM | Cn1ncc2c(-c3ccc(NC(=O)Nc4cccc(C(F)(F)F)c4)cc3)cc(C3CCC3)nc21 [1.37, 1-[4-(6-Cyclobutyl-1-methyl-1H-pyrazolo[3,4-b]pyridin-4-yl)-phenyl]-3-(3-trifluoromethyl-phenyl)-urea]
>20 fold | 501 to 1000 nM | Cc1cc(-c2ccc(NC(=O)Nc3ccc(F)c(C(F)(F)F)c3)cc2)c2cnn(C)c2n1 [2.5, 1-[4-(1,6-Dimethyl-1H-pyrazolo[3,4-b]pyridin-4-yl)-phenyl]-3-(4-fluoro-3-trifluoromethyl-phenyl)-urea]
>20 fold | < 501 nM | CN1CCC(Oc2ccc(NC(=O)Nc3ccc(-c4ccnc5c4cnn5C)cc3)cc2C(F)(F)F)CC1 [1.23, 1-[4-(1-Methyl-piperidin-4-yloxy)-3-trifluoromethyl-phenyl]-3-[4-(1-methyl-1H-pyrazolo[3,4-b]pyridin-4-yl)-phenyl]-urea]
